Data from patent US20060287316A1, “METHOD FOR IMPROVING PHARMACOKINETICS OF PROTEASE INHIBITORS AND PROTEASE INHIBITOR PRECURSORS” (priority 2005, published 2006).
In brackets after ≈: the same amount, converted by molar mass. Several values for one entry are separate records, joined by “and”; a condition that tells them apart may be missing. Equal entries are not always repeated. Where two headings read alike, the source gives them in different places.

Tests used:
CYP3A4/5 = assay: Inhibition of CYP450 sub-families; type: biochemical; conditions: FIG. 10
[1] = Plasma concentration after single oral dose in rats (in vivo cleavage of the phosphate group); set-up: species or system male Sprague-Dawley rats; conditions: 50 mg/Kg po, vehicle Mix, 3 rats
Description: To assess the extent of in vivo cleavage of the phosphate group from the putative compounds, PL-100, PL-462 (based on PL-100), PL-337 and PL-515 (based on PL-337) compounds were administered po (per os, (i.e., by mouth)) (50 mg/kg) to male Sprague-Dawley rats and their plasma concentration measured at different time intervals post-administration.
All test articles (PL-100, PL-462, PL-337 and PL-515) were prepared in different vehicle at the final concentration of 25 mg/mL. The vehicle composition is as follows: (1) 20% ethanol; 50% propylene glycol; 0.05% w/v Tween 20 and water (Mix); (2) PBS buffer (PBS).
Test articles were administered to male Sprague-Dawley rats at a single oral dose of 50 mg/kg. Each article was tested in three rats. Blood samples (0.2-0.3 mL) were collected at the post-dose time of 10, 20, 40, 60, 120, 180 and 360 minutes. The harvested blood was centrifuged to isolate plasma. The resulting plasma was separated and stored at −70° C.
Plasma samples together with standards and quality control samples were treated to precipitate proteins, then analyzed by HPLC-MS, for the presence of PL-462, PL-100, PL-515 and PL-337.

[2] = test system: 63 HIV isolates with reduced susceptibility to all approved protease inhibitors; type: cell-based, HIV-1; conditions: for % viral strains with EC95s ≦ 200 ng/ml / % viral strains with EC95s ≦ 630 ng/ml: protein-binding adjusted EC95
From the text: The cross-resistance profile of PL-100 against 63 HIV isolates with reduced susceptibility to all approved protease inhibitors (P is) including atazanavir was thus tested.
The panel of 63 viral strains was selected based on the following rationale: 1) High-level loss of susceptibility to specific P is; 2) High-level loss of susceptibility to multiple P is; 3) Good representation of the primary mutations. This panel consists of resistant viruses from highly PI-experienced patients with high-level PI resistance.
The genotype of these viruses encompasses a wide variety of mutational patterns. We particularly looked for the following primary PI mutations: D30N, L33F/I, M461/L, G48V, I50L/V, V82A/F/S/T, I84V and L90M as defined by the International AIDS Society (IAS)-USA.
The dark cells indicate a […], the grey cells indicate FC values of 2.5≦FC<10 and the white cells indicate a FC value of; 0≦FC<2.5. The results of cross-resistance profile are further illustrated in the graph of FIG. 1.
In the cross-resistance profiling studies against the 63 resistant strains mentioned herein, EC95 of PL-100 was determined against each strain. The median EC95 represents the concentration required to inhibit 95% of the viral replication of 50% diverse drug-resistant HIV-1 variants tested. Table 8 illustrates the percentage of resistant strains tested with protein-binding adjusted EC95s≦200 ng/ml. The resistant strains are grouped by the number of primary mutations they have.
The EC95 of PL-100 was determined against each of the 63 resistant strains indicated herein. Table 9 illustrates the percentage of resistant strains tested with protein-binding adjusted EC95s≦630 ng/ml. The resistant strains are grouped by the number of primary mutations they have.

Water solubility = type: physicochemical; conditions: water, pH 7.5, aqueous buffer
[3] = Effect of CYP450 inhibitors on metabolism of HIV-1 protease inhibitors in human liver microsomes; type: in vitro ADME
Description: The effect of CYP450 inhibitors on the metabolism of HIV-1 anti-protease was tested in human liver microsomes.

[4] = Cytotoxicity in the same cell culture system; type: cell-based; conditions: human, MT4 cells
Description: Cytotoxicity of PL-100 and other P is was evaluated in the same cell culture system. The selectivity index (SI) is the ratio of cytotoxicity (CC50) to antiviral activity (EC50). The selective index is similar to the therapeutic index but relates to in vitro studies.

[5] = test system: laboratory adapted HIV strain (NL4-3); assay: microbe, parasite or virus in culture
Description: Briefly, the antiviral activity of PL-100 was determined using MT4 cells infected with a laboratory adapted HIV strain (NL4-3). For comparison, seven approved protease inhibitors (PIs) were tested in parallel.
The effect of 40% human serum on the antiviral activity of PL-100 in MT4 cells infected with NL4-3 was therefore evaluated.

[6] = 63 diverse, multi-PI-resistant strains
[7] = 63 diverse, multi-PI-resistant strains, FC in IC50 vs NL-4.3
[8] = strains with 0 primary PI mutations
[9] = strains with 1 primary PI mutation
[10] = strains with 2 primary PI mutations
[11] = strains with 3 primary PI mutations
[12] = strains with 4 primary PI mutations
[13] = strains with 5-6 primary PI mutations

## COC(=O)N[C@H](C(=O)NCCCC[C@@H](CO)N(CC(C)C)S(=O)(=O)c1ccc(N)cc1)C(c1ccccc1)c1ccccc1 [PL-100, (1S,5S)-(1-{5-[(4-amino-benzenesulfonyl)-isobutyl-amino]-6-hydroxy-hexylcarbamoyl}-2,2-diphenyl-ethyl)-carbamic acid methyl ester]
CYP3A4/5
  Inhibition of CYP3A4/5: inhibits CYP3A4/5
[1]
  AUC: 0.675 ± 0.171 μg/hr * ml
  Cmax: 498 ± 203 nM
  Tmax: 40 ± 16 min
[2]; [6]
  % FC < 2.5: 37%
  % FC < 10: 76%
  % FC > 50: 3%
[2]; [7]
  Mean FC: 8.7
  Median FC: 3.6
[2]; [8]
  % viral strains with EC95s ≦ 200 ng/ml: 100%
  % viral strains with EC95s ≦ 630 ng/ml: 100%
[2]; [9]
  % viral strains with EC95s ≦ 200 ng/ml: 100%
  % viral strains with EC95s ≦ 630 ng/ml: 100%
[2]; [10]
  % viral strains with EC95s ≦ 200 ng/ml: 36%
  % viral strains with EC95s ≦ 630 ng/ml: 82%
[2]; [11]
  % viral strains with EC95s ≦ 200 ng/ml: 23%
  % viral strains with EC95s ≦ 630 ng/ml: 55%
[2]; [12]
  % viral strains with EC95s ≦ 200 ng/ml: 0%
  % viral strains with EC95s ≦ 630 ng/ml: 29%
[2]; [13]
  % viral strains with EC95s ≦ 200 ng/ml: 0%
  % viral strains with EC95s ≦ 630 ng/ml: 0%
[2]; sample O3-129578, 46I/82T/84V, panel ID 11
  Fold change in IC50 vs. Reference: 1.2
[2]; sample O3-129585, 48V/54V/82A/90M, panel ID 26
  Fold change in IC50 vs. Reference: 1.9
[2]; sample O3-129586, 30N/88D/90M, panel ID 28
  Fold change in IC50 vs. Reference: 1.4
[2]; sample O3-148709 (non-B subtype), 32I/47A, panel ID 1
  Fold change in IC50 vs. Reference: 1.4
[2]; sample O3-1129583, 84V/90M, panel ID 21
  Fold change in IC50 vs. Reference: 2.3
[2]; sample O4-148712, 46I/88S, panel ID 122
  Fold change in IC50 vs. Reference: 0.8
[2]; sample O4-148712, 46I/88S, panel ID 124
  Fold change in IC50 vs. Reference: 1.1
[2]; sample O4-148713, 46I/88S, panel ID 123
  Fold change in IC50 vs. Reference: 0.4
[2]; sample O4-148716, 33F/54L/88S/90M, panel ID 10
  Fold change in IC50 vs. Reference: 1.7
[2]; sample O4-148721, 32I/46I/47V/50L, panel ID 127
  Fold change in IC50 vs. Reference: 1.1
[2]; sample O4-148725, 32I/46L/47V/84V, panel ID 53
  Fold change in IC50 vs. Reference: 0.6
[2]; sample O4-148739, 48V/54V/82A/90M, panel ID 138
  Fold change in IC50 vs. Reference: 1.1
[2]; sample O4-148742, 46L/48V/82A/84V, panel ID 94
  Fold change in IC50 vs. Reference: 1.2
[2]; sample O4-148748, 37S/41K/70E, panel ID 115
  Fold change in IC50 vs. Reference: 0.9
[2]; sample O4-148749, 37T/41K/70E, panel ID 151
  Fold change in IC50 vs. Reference: 1.9
[2]; sample O4-148751, 54V/84V, panel ID 171
  Fold change in IC50 vs. Reference: 0.8
[2]; sample O4-148752, 54V/84V, panel ID 152
  Fold change in IC50 vs. Reference: 1.2
Water solubility
  solubility: 79 µg/mL (≈ 126 µM)
[3]; with ketoconazole and sulfaphenazole (FIG. 6)
  Effect of CYP450 inhibitor on metabolism: able to increase the PK of PL-100
[3]; with ritonavir (FIG. 6)
  Effect of CYP450 inhibitor on metabolism: most effective combination
[4]
  CC50: 33 µM
[5]; Human immunodeficiency virus 1, NL43, MT4, MT4 cells infected with NL4-3
  EC50: 16 nM
[5]; Human immunodeficiency virus 1, NL43, MT4, culture condition 10% FBS
  EC50: 18 nM
[5]; Human immunodeficiency virus 1, NL43, MT4, culture condition 10% FBS + 40% human serum
  EC50: 100 nM
[5]; culture condition 10% FBS
  Fold Change in EC50: 1.0
[5]; culture condition 10% FBS + 40% human serum
  Fold Change in EC50: 6 and 5.9
[5]; ratio of cytotoxicity (CC50) to antiviral activity (EC50)
  SI (CC50/EC50): 2,063
